Biological target: T1, human CB2 (Homo sapiens, UniProt P34972)
T1 construct: expressed in transfected cells; host or cells: HEK-293T (transient transfection, membrane preparation)
Test: CB2 receptor binding assay, block of [3H]-CP 55,940 binding
Conditions: membranes of HEK-293T cells transfected with human CB2 cDNA; 1.5 nM [3H]-CP 55,940
Description: Membrane preparation—HEK-293T cells were cultured according to ATCC (Manassas, Va.) guidelines and transfected with human CB2 cDNA (SEQ ID NO:1) (Genbank X74328), operably linked to the SV40 promoter, using Polyfect (Qiagen, Valencia, Calif.) or Fugene (Roche, Nutley, N.J.) according to manufacturer's instructions. 48 h after transfection cells were harvested in ice cold membrane buffer (20 mM HEPES, 6 mM MgCl2, 1 mM EDTA, pH 7.2) using a cell scraper. Cells were transferred to a nitrogen cavitation chamber and a pressure of […] was applied for 30 min. The pressure was released and the cell debris was collected and centrifuged at 1000 g at 4° C. for 10 min. The supernatant was collected and the spin was repeated until the supernatant was free of precipitate. Membranes were then pelleted by centrifugation at 12.000 g at 4° C. for 20 min. Membranes were resuspended in an appropriate amount of membrane buffer. The membrane concentration was determined using a BioRad (Hercules, Calif.) protein assay dye reagent according to manufacturer's instructions. Membranes were diluted to 1 mg/ml and aliquots snap-frozen in liquid nitrogen and store at −80° C.
Binding assay—0.5-10 ng of membranes were incubated in binding buffer (50 mM Tris, 0.5 mM EDTA, 0.1% BSA, pH 7.4) in the presence of 1.5 nM radioligand ([^3H]-CP 55,940 Perkin Elmer) and varying concentrations of ligands (total volume 100 μL in a 96 well plate). Membranes were filtered onto a 96 well GF/B filterplate (Packard Bioscience, Shelton, Conn.) and washed with […] wash buffer (25 mM HEPES, 1 mM CaCl2, 5 mM MgCl2, 0.25M NaCl) using a Filtermate 196 Harvester (Packard Instruments, Downers Grove, Ill.). The filter plates were dried under a heat lamp before addition of 50 μL of scintillation fluid to each well (Microscint 20, Packard, Shelton, Conn.). Plates were counted on a Topcount NXT (Packard, Shelton, Conn.).
Data Analysis—Graphs were plotted and KD values were determined by nonlinear regression analysis using Prism software (GraphPad version 4.0, San Diego, Calif., USA).

T1 sequence (P34972 whole entry): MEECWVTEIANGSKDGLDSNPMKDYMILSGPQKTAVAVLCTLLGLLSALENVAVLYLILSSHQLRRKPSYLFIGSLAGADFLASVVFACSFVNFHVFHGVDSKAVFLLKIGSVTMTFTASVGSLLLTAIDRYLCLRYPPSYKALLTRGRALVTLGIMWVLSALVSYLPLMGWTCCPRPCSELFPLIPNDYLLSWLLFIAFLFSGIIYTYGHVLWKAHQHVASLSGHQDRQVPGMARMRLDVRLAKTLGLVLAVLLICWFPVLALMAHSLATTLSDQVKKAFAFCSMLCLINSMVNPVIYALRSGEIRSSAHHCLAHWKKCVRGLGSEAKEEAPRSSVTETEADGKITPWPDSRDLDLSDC

Row | SMILES | pKi
1 | COc1cccc2nc(-c3c(F)ccc(OCF)c3F)c(Nc3ccc4c(c3)OCCO4)n12 [CR-1] | 9.5
2 | COc1cccc2nc(-c3c(F)ccc(O)c3Cl)c(Nc3ccc4c(c3)OCCO4)n12 [CR-2] | 8.6
3 | COc1cccc2nc(-c3c(F)cc(OCF)cc3F)c(Nc3ccc4c(c3)OCCO4)n12 [CR-3] | 8.6
4 | COc1cccc2nc(-c3c(F)ccc(O)c3F)c(Nc3ccc4c(c3)OCCO4)n12 [CR-4] | 8.5
5 | COc1cccc2nc(-c3c(C)cc(OCCO)cc3C)c(Nc3ccc4c(c3)OCCO4)n12 [CR-5] | 8.3
6 | Oc1cc(F)c(-c2nc3cccc(OCCF)n3c2Nc2ccc3c(c2)OCCO3)c(F)c1 [CR-6] | 7.6
7 | FCCOc1cccc2nc(-c3c(F)cncc3F)c(Nc3ccc4c(c3)OCCO4)n12 [CR-7] | 7.4
8 | FCCOc1cncc(F)c1-c1nc2cccc(OCCF)n2c1Nc1ccc2c(c1)OCCO2 [CR-8] | 6.6
9 | COc1cccc2nc(-c3c(F)ccc(OCCF)c3Cl)c(Nc3ccc4c(c3)OCCO4)n12 [CR-9] | 9.3
10 | COc1cccc2nc(-c3c(Cl)ccc(OCF)c3F)c(Nc3ccc4c(c3)OCCO4)n12 [CR-10] | 9.2
11 | COc1cccc2nc(-c3c(F)ccc(OCF)c3Cl)c(Nc3ccc4c(c3)OCCO4)n12 [CR-11] | 9.1
12 | COc1cccc2nc(-c3c(F)ccc(OCCF)c3F)c(Nc3ccc4c(c3)OCCO4)n12 [CR-12] | 8.8
13 | COc1ccc2nc(-c3c(F)cccc3Cl)c(Nc3ccc4c(c3)OCCO4)n2c1 [CR-13] | 8.7
14 | COc1cccc2nc(-c3c(F)cccc3Cl)c(Nc3ccc4c(c3)OCCO4)n12 [CR-14] | 8.7
15 | COc1cccc2nc(-c3c(F)cc(O)cc3F)c(Nc3ccc4c(c3)OCCO4)n12 [CR-15] | 8.6
16 | COc1ccc2nc(-c3c(F)ccc(OCF)c3Cl)c(Nc3ccc4c(c3)OCCO4)n2c1 [CR-16] | 8.6
17 | COc1cccc2nc(-c3c(F)cc(OCCF)cc3F)c(Nc3ccc4c(c3)OCCO4)n12 [CR-17] | 8.5
18 | COc1cccc2nc(-c3c(Cl)cccc3Cl)c(Nc3ccc4c(c3)OCCO4)n12 [CR-18] | 8.4
19 | COc1cccc2nc(-c3c(F)cccc3F)c(Nc3ccc4c(c3)OCCO4)n12 [CR-19] | 8.4
20 | COc1cccc2nc(-c3c(Cl)cncc3Cl)c(Nc3ccc4c(c3)OCCO4)n12 [CR-20] | 8.4
21 | COc1cccc2nc(-c3c(C)cc(OCCF)cc3C)c(Nc3ccc4c(c3)OCCO4)n12 [CR-21] | 8.3
22 | COc1cccc2nc(-c3c(Cl)ncnc3Cl)c(Nc3ccc4c(c3)OCCO4)n12 [CR-22] | 8.2
23 | COc1cccc2nc(-c3c(Cl)cc(O)cc3Cl)c(Nc3ccc4c(c3)OCCO4)n12 [CR-23] | 8.2
24 | CCOc1cccc2nc(-c3c(F)cccc3Cl)c(Nc3ccc4c(c3)OCCO4)n12 [CR-24] | 8.1
25 | Cc1cccc2nc(-c3c(F)cccc3Cl)c(Nc3ccc4c(c3)OCCO4)n12 [CR-25] | 8.0
26 | Cc1cccc2nc(-c3c(F)cc(OCCF)cc3F)c(Nc3ccc4c(c3)OCCO4)n12 [CR-26] | 7.9

Row | SMILES | pKi
27 | Cc1cc(O)cc(C)c1-c1nc2cccc(OCCF)n2c1Nc1ccc2c(c1)OCCO2 [CR-27] | 7.9
28 | Cc1cccc2nc(-c3c(F)cc(O)cc3F)c(Nc3ccc4c(c3)OCCO4)n12 [CR-28] | 7.9
29 | CC(C)Oc1cccc2nc(-c3c(F)cccc3Cl)c(Nc3ccc4c(c3)OCCO4)n12 [CR-29] | 7.9
30 | C=COc1ccc2nc(-c3c(F)cccc3Cl)c(Nc3ccc4c(c3)OCCO4)n2c1 [CR-30] | 7.8
31 | COc1cnc2nc(-c3c(F)cccc3Cl)c(Nc3ccc4c(c3)OCCO4)n2c1 [CR-31] | 7.8
32 | Cc1cccc2nc(-c3c(Cl)cccc3Cl)c(Nc3ccc4c(c3)OCCO4)n12 [CR-32] | 7.8
33 | Cc1cc(O)cc(C)c1-c1nc2ccc(F)cn2c1Nc1ccc2c(c1)OCCO2 [CR-33] | 7.8
34 | COc1cccc2nc(-c3c(F)cncc3F)c(Nc3ccc4c(c3)OCCO4)n12 [CR-34] | 7.8
35 | Oc1cc(Cl)c(-c2nc3cccc(OCCF)n3c2Nc2ccc3c(c2)OCCO3)c(Cl)c1 [CR-35] | 7.8
36 | Cc1cc(OCCF)cc(C)c1-c1nc2cccc(F)n2c1Nc1ccc2c(c1)OCCO2 [CR-36] | 7.7
37 | FCCOc1cccc2nc(-c3c(F)cccc3Cl)c(Nc3ccc4c(c3)OCCO4)n12 [CR-37] | 7.7
38 | Fc1cccc(Cl)c1-c1nc2ccccn2c1Nc1ccc2c(c1)OCCO2 [CR-38] | 7.7
39 | Cc1ccc2nc(-c3c(Cl)cccc3Cl)c(Nc3ccc4c(c3)OCCO4)n2c1 [CR-39] | 7.6
40 | Fc1ccc2nc(-c3c(F)cccc3Cl)c(Nc3ccc4c(c3)OCCO4)n2c1 [CR-40] | 7.5
41 | FCCOc1ccc2nc(-c3c(F)cccc3Cl)c(Nc3ccc4c(c3)OCCO4)n2c1 [CR-41] | 7.5
42 | Cc1ccc2nc(-c3c(F)cccc3Cl)c(Nc3ccc4c(c3)OCCO4)n2c1 [CR-42] | 7.5
43 | CNc1cccc2nc(-c3c(F)cccc3Cl)c(Nc3ccc4c(c3)OCCO4)n12 [CR-43] | 7.5
44 | COc1ccc2nc(-c3c(F)cccc3Cl)c(Nc3ccc4c(c3)OCCO4)n2c1Cl [CR-44] | 7.4
45 | CCc1cccc2nc(-c3c(F)cccc3Cl)c(Nc3ccc4c(c3)OCCO4)n12 [CR-45] | 7.4
46 | Fc1cccc(Cl)c1-c1nc2ncccn2c1Nc1ccc2c(c1)OCCO2 [CR-46] | 7.4
47 | Cc1ccc2nc(-c3c(Cl)cccc3[N+](=O)[O-])c(Nc3ccc4c(c3)OCCO4)n2c1 [CR-47] | 7.4
48 | Cc1ccc2nc(-c3c(F)cccc3F)c(Nc3ccc4c(c3)OCCO4)n2c1 [CR-48] | 7.4
49 | Cc1ccc2nc(-c3c(C)cccc3C)c(Nc3ccc4c(c3)OCCO4)n2c1 [CR-49] | 7.3
50 | Cc1cccn2c(Nc3ccc4c(c3)OCCO4)c(-c3c(F)cccc3Cl)nc12 [CR-50] | 7.3
51 | Cc1cccc(C)c1-c1nc2ccccn2c1Nc1ccc2c(c1)OCCO2 [CR-51] | 7.3
52 | Cc1cccc2nc(-c3c(F)cncc3F)c(Nc3ccc4c(c3)OCCO4)n12 [CR-52] | 7.3

Row | SMILES | pKi
53 | Cc1cccc2nc(-c3c(F)cc(C#N)cc3F)c(Nc3ccc4c(c3)OCCO4)n12 [CR-53] | 7.3
54 | Cc1ccn2c(Nc3ccc4c(c3)OCCO4)c(-c3ccc(F)nc3)nc2c1 [CR-54] | 5.2
55 | Cc1ccn2c(Nc3ccc4c(c3)OCCO4)c(-c3c(F)cccc3Cl)nc2c1 [CR-55] | 7.3
56 | Fc1cccc(F)c1-c1nc2ccccn2c1Nc1ccc2c(c1)OCCO2 [CR-56] | 7.3
57 | Cc1cccc2nc(-c3ncccc3F)c(Nc3ccc4c(c3)OCCO4)n12 [CR-57] | 7.2
58 | Cc1cncc2nc(-c3c(F)cccc3Cl)c(Nc3ccc4c(c3)OCCO4)n12 [CR-58] | 7.2
59 | Cc1ccc2nc(-c3cccc(F)n3)c(Nc3ccc4c(c3)OCCO4)n2c1 [CR-59] | 7.1
60 | COc1cc(-c2nc3cc(C)ccn3c2Nc2ccc3c(c2)OCCO3)ccc1O [CR-60] | 7.1
61 | COc1ccnc2nc(-c3c(F)cc(OCCF)cc3F)c(Nc3ccc4c(c3)OCCO4)n12 [CR-61] | 7.0
62 | CCC(C)Oc1cccc2nc(-c3c(F)cccc3Cl)c(Nc3ccc4c(c3)OCCO4)n12 (stereo not shown) [CR-62] | 7.0
63 | Fc1cccc(-c2nc3ccccn3c2Nc2ccc3c(c2)OCCO3)n1 [CR-63] | 7.0
64 | Clc1cncc(Cl)c1-c1nc2ccccn2c1Nc1ccc2c(c1)OCCO2 [CR-64] | 7.0
65 | COc1cc(O)ccc1-c1nc2cccc(C)n2c1Nc1ccc2c(c1)OCCO2 [CR-65] | 6.9
66 | COc1ccc2nc(-c3c(Cl)cncc3Cl)c(Nc3ccc4c(c3)OCCO4)n2c1 [CR-66] | 6.9
67 | COc1ccc2nc(-c3c(F)cccc3Cl)c(Nc3ccc4c(c3)OCCO4)n2c1OC [CR-67] | 6.9
68 | Cc1ccn2c(Nc3ccc4c(c3)OCCO4)c(-c3c(Cl)cccc3Cl)nc2c1 [CR-68] | 6.9
69 | Cc1cccc2nc(-c3ccc(OCCF)c(O)c3)c(Nc3ccc4c(c3)OCCO4)n12 [CR-69] | 6.8
70 | COc1cc(-c2nc3ncccn3c2Nc2ccc3c(c2)OCCO3)ccc1O [CR-70] | 6.8
71 | COc1cc(-c2nc3ccccn3c2Nc2ccc3c(c2)OCCO3)ccc1O [CR-71] | 6.8
72 | COc1cc(-c2nc3c(C)cccn3c2Nc2ccc3c(c2)OCCO3)ccc1O [CR-72] | 6.8
73 | COc1ccnc2nc(-c3c(C)cc(OCCF)cc3C)c(Nc3ccc4c(c3)OCCO4)n12 [CR-73] | 6.8
74 | Cc1cccc(C)c1-c1nc2ncccn2c1Nc1ccc2c(c1)OCCO2 [CR-74] | 6.8
75 | COc1cc(-c2nc3cnccn3c2Nc2ccc3c(c2)OCCO3)ccc1O [CR-75] | 6.8
76 | Fc1cccnc1-c1nc2cnccn2c1Nc1ccc2c(c1)OCCO2 [CR-76] | 5.2
